ChEMBL document CHEMBL1135201, “Combinatorial library of indinavir analogues: replacement for the aminoindanol at P2'” (Bioorg Med Chem Lett, 2002)

Tests used:
MT4 = assay: Ability to inhibit the spread of viral infection in MT-4 human T-lymphoid cells infected with HIV IIIb; type: functional
[1] = target: Human immunodeficiency virus type 1 protease (Human immunodeficiency virus 1, UniProt Q72874); assay: Ability to prevent cleavage of acompound by the HIV protease wild-type enzyme

Structure (SMILES)	ClC95 (MT4) [nM]	IC50 [1] [nM]
Cc1cc(O)cc(C)c1CNC(=O)[C@H](Cc1ccccc1)C[C@@H](O)CN1CCN(S(=O)(=O)c2cccs2)C[C@@H]1C(=O)NC(C)(C)C	62.5	0.47
Cc1cc(O)cc(C)c1CNC(=O)[C@H](Cc1ccccc1)C[C@@H](O)CN1CCN(S(=O)(=O)c2ccc3c(c2)CCN3c2ncccn2)C[C@@H]1C(=O)NC(C)(C)C	31.3	0.2
CSc1nccc(-c2ccc(S(=O)(=O)N3CCN(C[C@H](O)C[C@@H](Cc4ccccc4)C(=O)NCc4c(C)cc(O)cc4C)[C@@H](C(=O)NC(C)(C)C)C3)s2)n1	62.5	< 0.2
CC(C)(C)NC(=O)[C@H]1CN(S(=O)(=O)c2cccs2)CCN1C[C@H](O)C[C@@H](Cc1ccccc1)C(=O)NC1c2ccccc2C[C@H]1O (stereo partly drawn)	31.3	0.1
